Assay [1] concerns the target Melanocortin receptor 4 (Homo sapiens, UniProt P32245). Description: MC4R antagonist potency on cAMP, dose response, cell-based, TR-FRET, biased antagonists (AID 602298).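 Also: antagonist potency against agonist-stimulated cAMP production.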 It is filed as functional. On the technique in general: TR-FRET usually uses a lanthanide donor and a delayed reading to cut background.
A short description of assay [2]: nonselective inhibitors of cellular cAMP signaling, dose response, counter-screen for MC4R biased antagonist project, cell-based, TR-FRET cAMP detection (AID 602305).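 Also: U2OS cells stimulated with forskolin near its EC80 as the cAMP inducer; potency is for inhibition of forskolin-stimulated cAMP signaling.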 It is filed as functional.
The test system of assay [3] is HEK293. Description: cells. The note with it: Homo sapiens.
For assay [4], the target named is T1, Nucleotide-binding oligomerization domain-containing protein 1 (Homo sapiens, UniProt Q9Y239).
T1 sequence (Q9Y239 whole entry): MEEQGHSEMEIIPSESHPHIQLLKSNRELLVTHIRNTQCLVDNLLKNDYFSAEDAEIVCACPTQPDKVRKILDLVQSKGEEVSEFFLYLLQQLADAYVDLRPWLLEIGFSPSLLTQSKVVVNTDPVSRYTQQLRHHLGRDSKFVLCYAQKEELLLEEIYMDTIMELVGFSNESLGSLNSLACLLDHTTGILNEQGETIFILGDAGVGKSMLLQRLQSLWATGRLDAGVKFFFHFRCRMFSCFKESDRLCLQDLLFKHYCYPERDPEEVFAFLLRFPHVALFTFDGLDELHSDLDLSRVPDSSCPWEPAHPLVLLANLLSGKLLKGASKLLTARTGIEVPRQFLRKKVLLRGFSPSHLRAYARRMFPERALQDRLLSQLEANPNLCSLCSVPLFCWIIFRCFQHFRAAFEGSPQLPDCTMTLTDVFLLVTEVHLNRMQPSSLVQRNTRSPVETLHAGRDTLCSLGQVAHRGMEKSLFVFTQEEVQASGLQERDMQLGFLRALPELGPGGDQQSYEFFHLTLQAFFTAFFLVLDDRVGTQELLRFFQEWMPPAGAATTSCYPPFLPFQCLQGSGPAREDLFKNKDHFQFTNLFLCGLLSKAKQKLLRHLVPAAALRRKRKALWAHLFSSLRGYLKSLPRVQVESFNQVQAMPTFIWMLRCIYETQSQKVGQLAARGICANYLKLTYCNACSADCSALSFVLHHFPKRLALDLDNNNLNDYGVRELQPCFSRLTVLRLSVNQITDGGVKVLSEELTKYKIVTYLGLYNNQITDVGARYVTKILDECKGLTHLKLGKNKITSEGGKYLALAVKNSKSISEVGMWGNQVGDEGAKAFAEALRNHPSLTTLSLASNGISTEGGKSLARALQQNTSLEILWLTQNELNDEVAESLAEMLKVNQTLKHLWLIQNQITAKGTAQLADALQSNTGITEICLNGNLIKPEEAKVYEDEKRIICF
The assay is described as follows: NOD1 signaling inhibitors, SAR follow-up, revised (AID 2333). It is filed as functional.

Assay [5] relates to INS1. Description: beta cell apoptosis inhibitors, cytokine rescue, dose response, luminescence, retest (AID 449756).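 Also: cell death triggered by IL-1 beta plus TNF-alpha plus IFN-gamma mixture; protective hits raise ATP signal compared with cytokine alone wells.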 It is filed as functional, cell-based. The note with it: Rattus norvegicus.
The target in assay [6] is Tumor necrosis factor (Homo sapiens, UniProt P01375). The assay is described as follows: TNFa-triggered NF-kB activation inhibitors, SAR follow-up, cell-based, revised (AID 2337). It is filed as functional.
Tumor necrosis factor, sequence (P01375 whole entry): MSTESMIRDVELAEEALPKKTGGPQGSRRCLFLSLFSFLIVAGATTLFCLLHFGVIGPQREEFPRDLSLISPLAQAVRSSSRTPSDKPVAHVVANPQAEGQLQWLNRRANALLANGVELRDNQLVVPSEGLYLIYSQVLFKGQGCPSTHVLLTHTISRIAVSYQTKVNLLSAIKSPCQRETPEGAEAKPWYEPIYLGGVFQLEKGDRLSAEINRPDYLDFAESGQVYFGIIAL
Assay [7] deals with Jurkat. The assay is described as follows: antigen receptor-induced NF-kB inhibitors, dose response, Jurkat, luciferase reporter, luminescence, B- and T-cell (AID 489004).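 Also: NF-kB luciferase reporter Jurkat cells stimulated with PMA plus ionomycin.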 It is filed as functional, cell-based. As to conditions: Homo sapiens. In general terms: In a reporter assay the amount or activity of a reporter protein is the signal.
A short description of assay [8]: cytotoxicity in HEK-293T NF-kB-Luc cells, dose response, cytotoxicity control for B/T-cell NF-kB inhibitor project, cell-based, uHTS hits (AID 489019).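 Also: IC50 reflects cytotoxicity as loss of cell viability.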 In kind it is functional.
In assay [9] the target is T2, Galanin receptor type 3 (Homo sapiens, UniProt O60755).
T2 sequence (O60755 whole entry): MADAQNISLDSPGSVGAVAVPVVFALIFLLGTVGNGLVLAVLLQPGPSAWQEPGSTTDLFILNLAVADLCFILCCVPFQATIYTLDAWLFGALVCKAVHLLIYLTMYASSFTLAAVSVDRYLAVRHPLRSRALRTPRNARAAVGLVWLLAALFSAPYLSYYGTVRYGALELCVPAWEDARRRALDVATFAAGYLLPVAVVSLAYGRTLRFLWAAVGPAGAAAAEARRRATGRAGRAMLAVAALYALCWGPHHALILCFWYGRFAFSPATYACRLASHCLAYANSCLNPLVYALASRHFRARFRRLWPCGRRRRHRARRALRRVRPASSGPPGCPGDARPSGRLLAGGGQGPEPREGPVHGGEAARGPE
The assay is described as follows: Fluorescence-based cell-based primary high throughput dose response assay to identify antagonists of the Galanin Receptor 3 (GalR3). In kind it is functional.

Assay [10] in a line: cells. In kind it is functional, cell-based. The note with it: HEK-CNG.
Assay [11] deals with DNA repair and recombination protein RAD54-like (Homo sapiens, UniProt Q92698). Description: inhibitors of human RAD54 branch migration, confirmation, biochemical, fluorescence, cherry-picked samples, dose series (AID 651657). It is filed as functional.
DNA repair and recombination protein RAD54-like, sequence (Q92698 whole entry): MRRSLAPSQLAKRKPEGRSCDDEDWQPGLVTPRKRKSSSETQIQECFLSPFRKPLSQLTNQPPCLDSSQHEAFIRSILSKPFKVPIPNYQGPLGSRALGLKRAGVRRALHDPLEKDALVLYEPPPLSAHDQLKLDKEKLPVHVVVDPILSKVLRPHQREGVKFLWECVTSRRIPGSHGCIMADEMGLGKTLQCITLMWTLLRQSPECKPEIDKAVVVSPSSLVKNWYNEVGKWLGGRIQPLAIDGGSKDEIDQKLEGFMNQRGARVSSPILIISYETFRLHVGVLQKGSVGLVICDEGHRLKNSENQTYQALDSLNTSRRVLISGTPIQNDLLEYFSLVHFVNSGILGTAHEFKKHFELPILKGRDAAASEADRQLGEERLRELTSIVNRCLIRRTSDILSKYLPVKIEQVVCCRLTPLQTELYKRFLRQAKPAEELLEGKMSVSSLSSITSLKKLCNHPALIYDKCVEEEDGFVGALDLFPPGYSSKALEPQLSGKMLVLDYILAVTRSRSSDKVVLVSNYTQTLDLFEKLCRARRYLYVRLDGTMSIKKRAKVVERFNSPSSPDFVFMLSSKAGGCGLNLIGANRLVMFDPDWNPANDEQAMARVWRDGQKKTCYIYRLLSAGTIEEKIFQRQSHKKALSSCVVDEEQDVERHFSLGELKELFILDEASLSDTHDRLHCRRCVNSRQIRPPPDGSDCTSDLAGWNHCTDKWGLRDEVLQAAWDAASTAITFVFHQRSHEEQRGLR
The nature of assay [12]: HEp-2 cell cytotoxicity, dose response, cytotoxicity control for RSV inhibitor project, HTS (AID 2410). In kind it is functional. The note with it: human respiratory syncytial virus.
Assay [13] has as its target Prothrombin (Bos taurus, UniProt P00735). The assay is described as follows: thrombin inhibition, dose response, biochemical, fluorescence polarization, uHTS hits (AID 602369). It is filed as functional. On the technique in general: Fluorescence polarisation rises when a labelled molecule tumbles more slowly, as on binding a larger partner.
Assay [14] addresses 26S proteasome non-ATPase regulatory subunit 14 (Homo sapiens, UniProt O00487). Description: inhibition of proteasome subunit RPN11 – biochemical, fluorescence polarization, uHTS hits, confirmation (AID 602368). It is filed as functional.
For assay [15], the target named is 72 kDa type IV collagenase (Homo sapiens, UniProt P08253). Description: Dose Response validation of uHTS RPN11 inhibitor hits using a MMP-2 Fluorescence assay. It is filed as functional.
72 kDa type IV collagenase, sequence (P08253 whole entry): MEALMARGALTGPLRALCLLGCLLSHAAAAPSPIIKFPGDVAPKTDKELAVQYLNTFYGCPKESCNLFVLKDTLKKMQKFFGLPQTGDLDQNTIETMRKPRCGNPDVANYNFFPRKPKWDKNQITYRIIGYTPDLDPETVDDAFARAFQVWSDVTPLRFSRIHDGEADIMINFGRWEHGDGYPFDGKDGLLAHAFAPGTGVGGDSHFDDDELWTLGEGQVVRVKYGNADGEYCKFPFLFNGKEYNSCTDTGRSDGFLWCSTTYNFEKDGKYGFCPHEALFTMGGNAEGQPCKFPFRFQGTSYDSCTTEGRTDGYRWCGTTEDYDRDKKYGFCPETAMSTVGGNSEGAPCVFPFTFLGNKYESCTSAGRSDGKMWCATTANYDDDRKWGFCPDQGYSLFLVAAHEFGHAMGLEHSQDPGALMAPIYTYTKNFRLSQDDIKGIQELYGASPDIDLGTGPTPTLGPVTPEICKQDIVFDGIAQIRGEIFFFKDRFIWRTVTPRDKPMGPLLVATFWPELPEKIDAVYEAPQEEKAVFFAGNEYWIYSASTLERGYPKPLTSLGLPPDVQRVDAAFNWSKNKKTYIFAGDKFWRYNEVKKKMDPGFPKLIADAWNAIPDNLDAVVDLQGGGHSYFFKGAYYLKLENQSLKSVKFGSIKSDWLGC
In assay [16] the test system is HEK293. The assay is described as follows: cytotoxicity in HEK293T NF-kB-Luc cells, SAR follow-up, cytotoxicity control for NF-kB activator project, cell-based, resazurin fluorescence (AID 493251). As to conditions: Homo sapiens. It is filed as functional.
Assay [17] deals with T3, Apoptotic protease-activating factor 1 (Homo sapiens, UniProt O14727).
T3 sequence (O14727 whole entry): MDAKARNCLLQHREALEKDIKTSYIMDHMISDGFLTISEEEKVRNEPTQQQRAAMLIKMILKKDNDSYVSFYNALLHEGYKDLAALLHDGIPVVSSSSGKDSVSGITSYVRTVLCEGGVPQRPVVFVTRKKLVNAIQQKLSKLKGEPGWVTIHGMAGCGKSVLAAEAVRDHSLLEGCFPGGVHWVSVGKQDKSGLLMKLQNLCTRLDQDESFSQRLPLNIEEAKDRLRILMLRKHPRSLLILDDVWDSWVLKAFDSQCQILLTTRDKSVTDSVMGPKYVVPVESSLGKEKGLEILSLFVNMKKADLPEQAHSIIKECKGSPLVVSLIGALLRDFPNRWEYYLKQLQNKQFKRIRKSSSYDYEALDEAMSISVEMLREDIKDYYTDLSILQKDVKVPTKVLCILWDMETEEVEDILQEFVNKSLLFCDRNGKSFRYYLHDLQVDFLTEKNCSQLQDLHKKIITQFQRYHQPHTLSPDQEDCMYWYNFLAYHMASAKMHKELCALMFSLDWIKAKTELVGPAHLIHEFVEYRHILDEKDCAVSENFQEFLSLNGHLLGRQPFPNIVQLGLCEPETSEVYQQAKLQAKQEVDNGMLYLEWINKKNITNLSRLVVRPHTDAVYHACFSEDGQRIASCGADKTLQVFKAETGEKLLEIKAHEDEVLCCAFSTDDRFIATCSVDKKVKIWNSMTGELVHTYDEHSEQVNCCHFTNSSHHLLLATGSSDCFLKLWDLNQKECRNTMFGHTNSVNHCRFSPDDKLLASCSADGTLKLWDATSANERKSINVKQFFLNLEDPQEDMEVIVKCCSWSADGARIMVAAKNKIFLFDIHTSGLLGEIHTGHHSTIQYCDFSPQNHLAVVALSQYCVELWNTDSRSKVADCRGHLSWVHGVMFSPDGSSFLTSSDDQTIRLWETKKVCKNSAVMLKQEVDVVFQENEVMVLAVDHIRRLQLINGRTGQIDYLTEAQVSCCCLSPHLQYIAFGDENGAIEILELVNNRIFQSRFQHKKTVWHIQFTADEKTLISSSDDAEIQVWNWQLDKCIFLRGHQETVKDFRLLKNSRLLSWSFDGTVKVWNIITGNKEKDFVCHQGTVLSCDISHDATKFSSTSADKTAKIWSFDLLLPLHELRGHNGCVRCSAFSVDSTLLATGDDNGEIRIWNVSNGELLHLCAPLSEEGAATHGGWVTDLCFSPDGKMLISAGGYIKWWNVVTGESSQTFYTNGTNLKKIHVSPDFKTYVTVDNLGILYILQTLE
The assay is described as follows: SAR analysis of small molecule Activators of Apaf-1 in a Fluorescent assay. It is filed as functional. As to conditions: read-out: EC50_Mean.

Assay [18] concerns the target DNA (cytosine-5)-methyltransferase 1 (Homo sapiens, UniProt P26358). Description: DNMT1 methyltransferase inhibitors, confirmation, biochemical, fluorescent molecular beacon (AID 602386). It is filed as functional.
Assay [19] concerns the target T4, SUMO-activating enzyme (Homo sapiens, UniProt Q9UBT2). The assay is described as follows: SUMOylation inhibitor hit validation, confirmation, SUMOylation inhibitor project, biochemical, AlphaScreen (AID 2018). It is filed as functional.
Assay [20] addresses T5, Small ubiquitin-related modifier 1 (Homo sapiens, UniProt P63165). The assay is described as follows: inhibitors of SUMO1 peptide binding, dose response, biochemical, fluorescence polarization, uHTS hits (AID 624382). It is filed as functional. The note with it: read-out: IC50_Mean.
In assay [21] the target is T5, Small ubiquitin-related modifier 1. Description: inhibitors of SUMO1 partner interactions, dose response, biochemical, FRET (AID 624383). In kind it is functional. The note with it: read-out: IC50_Mean.
In assay [22] the target is T4, SUMO-activating enzyme. Description: inhibitors of in vitro SUMOylation cascade, primary screen, biochemical, HTRF, uHTS (AID 2006). It is filed as protein-complex assay.
A short description of assay [23]: inhibitors of intracellular T. cruzi replication, confirmation, NIH3T3 host cells, beta-gal luminescence (AID 2044).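 Also: intracellular parasites grown in NIH/3T3 mouse fibroblasts as host cells; luminescent beta-galactosidase reporter signal from transgenic T. cruzi replicating inside host cells; inhibitors lower the luminescence signal.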 In kind it is functional, cell-based.
The nature of assay [24]: cytotoxicity toward NIH3T3 fibroblasts, dose response, counter-screen, cell-based, ATP luminescence, mouse fibroblasts (AID 2010).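 Also: cells exposed to compound for about 90 hours before reading.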 In kind it is functional.

By AC50 is commonly meant the concentration giving half of the maximal activity seen. One may read the CC50 as the concentration giving 50% cytotoxicity.

Active and inactive are the calls of the source.
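For EC50 Mean in this document: caspase-3 cleavage of fluorogenic Rh110 DEVD substrate downstream of apoptosome activation.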

26S proteasome non-ATPase regulatory subunit 14, sequence (O00487 whole entry): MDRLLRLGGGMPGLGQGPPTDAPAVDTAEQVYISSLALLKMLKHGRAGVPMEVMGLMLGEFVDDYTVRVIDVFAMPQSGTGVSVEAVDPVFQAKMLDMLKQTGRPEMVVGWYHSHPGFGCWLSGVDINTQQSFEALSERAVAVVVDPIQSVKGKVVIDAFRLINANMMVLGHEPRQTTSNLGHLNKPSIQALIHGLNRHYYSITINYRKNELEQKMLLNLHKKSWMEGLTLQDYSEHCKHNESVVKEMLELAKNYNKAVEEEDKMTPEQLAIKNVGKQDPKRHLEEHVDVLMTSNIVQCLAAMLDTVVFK
T4 sequence (Q9UBE0 whole entry): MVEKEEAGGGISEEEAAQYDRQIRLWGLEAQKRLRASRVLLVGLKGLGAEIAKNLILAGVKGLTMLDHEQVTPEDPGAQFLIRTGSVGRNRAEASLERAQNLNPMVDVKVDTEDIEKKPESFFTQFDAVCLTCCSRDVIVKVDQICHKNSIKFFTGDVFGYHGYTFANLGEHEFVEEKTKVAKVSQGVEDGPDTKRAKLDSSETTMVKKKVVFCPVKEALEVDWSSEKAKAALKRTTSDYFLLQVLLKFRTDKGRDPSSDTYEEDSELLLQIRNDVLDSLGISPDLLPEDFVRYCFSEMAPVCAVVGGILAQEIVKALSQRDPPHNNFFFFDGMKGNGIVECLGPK
T4 sequence (Q9UBT2 whole entry): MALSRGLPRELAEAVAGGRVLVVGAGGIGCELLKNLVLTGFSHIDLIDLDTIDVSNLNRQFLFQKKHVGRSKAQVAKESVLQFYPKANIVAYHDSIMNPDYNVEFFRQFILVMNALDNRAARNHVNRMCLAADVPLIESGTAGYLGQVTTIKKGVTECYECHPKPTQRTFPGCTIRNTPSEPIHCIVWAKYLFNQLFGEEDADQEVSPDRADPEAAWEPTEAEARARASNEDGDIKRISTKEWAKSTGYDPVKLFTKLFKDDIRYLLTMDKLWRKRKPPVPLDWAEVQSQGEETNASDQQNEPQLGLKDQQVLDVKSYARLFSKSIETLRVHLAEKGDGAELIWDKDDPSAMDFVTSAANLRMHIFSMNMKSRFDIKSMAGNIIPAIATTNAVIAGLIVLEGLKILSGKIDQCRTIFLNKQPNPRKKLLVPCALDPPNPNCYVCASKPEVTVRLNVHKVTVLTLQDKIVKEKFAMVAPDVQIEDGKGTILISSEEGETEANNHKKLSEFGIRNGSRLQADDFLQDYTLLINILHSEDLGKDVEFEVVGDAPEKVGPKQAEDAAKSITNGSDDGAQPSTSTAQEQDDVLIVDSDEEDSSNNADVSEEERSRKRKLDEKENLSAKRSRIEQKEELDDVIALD
T5 sequence (P63165 whole entry): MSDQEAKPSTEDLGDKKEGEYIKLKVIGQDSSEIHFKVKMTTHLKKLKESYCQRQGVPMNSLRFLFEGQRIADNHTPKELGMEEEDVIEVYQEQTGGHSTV
Melanocortin receptor 4, sequence (P32245 whole entry): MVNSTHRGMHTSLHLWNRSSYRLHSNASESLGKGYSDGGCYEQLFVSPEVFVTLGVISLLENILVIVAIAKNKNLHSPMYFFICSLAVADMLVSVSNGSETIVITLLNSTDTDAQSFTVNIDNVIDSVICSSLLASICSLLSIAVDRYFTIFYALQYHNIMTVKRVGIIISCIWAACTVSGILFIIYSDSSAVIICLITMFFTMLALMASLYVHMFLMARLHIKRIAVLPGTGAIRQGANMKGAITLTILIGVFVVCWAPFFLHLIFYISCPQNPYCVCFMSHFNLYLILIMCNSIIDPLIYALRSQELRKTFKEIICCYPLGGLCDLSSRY
DNA (cytosine-5)-methyltransferase 1, sequence (P26358 whole entry): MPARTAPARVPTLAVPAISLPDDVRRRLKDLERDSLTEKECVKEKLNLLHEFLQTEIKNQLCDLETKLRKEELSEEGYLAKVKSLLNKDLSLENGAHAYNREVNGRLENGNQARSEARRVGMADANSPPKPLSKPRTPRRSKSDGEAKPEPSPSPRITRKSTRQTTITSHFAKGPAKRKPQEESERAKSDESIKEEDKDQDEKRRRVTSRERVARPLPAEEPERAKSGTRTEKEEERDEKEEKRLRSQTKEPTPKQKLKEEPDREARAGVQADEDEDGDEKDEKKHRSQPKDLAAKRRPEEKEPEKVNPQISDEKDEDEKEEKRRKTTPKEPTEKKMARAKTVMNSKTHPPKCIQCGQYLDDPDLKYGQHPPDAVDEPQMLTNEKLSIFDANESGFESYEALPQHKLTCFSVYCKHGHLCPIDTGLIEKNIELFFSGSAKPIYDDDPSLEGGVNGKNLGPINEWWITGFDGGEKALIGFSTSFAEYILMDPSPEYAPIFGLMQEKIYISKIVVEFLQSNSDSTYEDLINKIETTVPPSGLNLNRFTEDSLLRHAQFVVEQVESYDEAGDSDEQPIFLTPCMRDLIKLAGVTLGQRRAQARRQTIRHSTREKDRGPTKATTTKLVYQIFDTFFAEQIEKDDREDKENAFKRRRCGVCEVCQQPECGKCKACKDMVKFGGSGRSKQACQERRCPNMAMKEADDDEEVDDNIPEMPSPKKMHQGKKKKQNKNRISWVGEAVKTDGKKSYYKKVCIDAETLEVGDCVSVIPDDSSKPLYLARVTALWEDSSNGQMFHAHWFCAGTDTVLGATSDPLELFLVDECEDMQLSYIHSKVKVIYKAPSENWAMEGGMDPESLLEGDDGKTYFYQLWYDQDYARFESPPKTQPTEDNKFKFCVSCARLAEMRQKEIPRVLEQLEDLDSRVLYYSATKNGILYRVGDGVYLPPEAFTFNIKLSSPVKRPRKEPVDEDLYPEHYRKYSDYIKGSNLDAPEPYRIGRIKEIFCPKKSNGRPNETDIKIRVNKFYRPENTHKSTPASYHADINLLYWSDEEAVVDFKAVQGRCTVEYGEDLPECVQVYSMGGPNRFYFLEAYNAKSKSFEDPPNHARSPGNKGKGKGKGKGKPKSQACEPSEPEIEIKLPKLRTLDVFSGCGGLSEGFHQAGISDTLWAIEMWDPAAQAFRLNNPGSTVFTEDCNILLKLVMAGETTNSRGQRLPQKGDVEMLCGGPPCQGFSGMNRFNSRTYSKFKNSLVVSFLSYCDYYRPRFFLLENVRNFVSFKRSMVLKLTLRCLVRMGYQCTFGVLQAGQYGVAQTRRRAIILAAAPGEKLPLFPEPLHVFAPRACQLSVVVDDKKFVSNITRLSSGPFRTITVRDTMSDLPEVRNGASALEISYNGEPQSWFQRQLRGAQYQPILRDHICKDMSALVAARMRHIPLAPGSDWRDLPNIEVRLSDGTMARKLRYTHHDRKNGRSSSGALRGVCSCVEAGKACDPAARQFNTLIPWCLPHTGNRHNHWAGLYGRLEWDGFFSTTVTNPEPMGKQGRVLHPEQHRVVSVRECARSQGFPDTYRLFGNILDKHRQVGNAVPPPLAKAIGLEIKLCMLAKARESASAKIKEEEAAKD

In the case of `O=C(/C=C/c1cccs1)N1CCC2(CC1)Oc1ccc(Cl)cc1C(=O)C21CC(c2cccnc2)=NO1` (centres undefined), the IC50 in assay [1] and in assay [2] was > 64.6 µM (inactive) throughout.
Consider `CCOc1ccc(Nc2nc(Cl)nc(N3CCN(c4ccc(OC)cc4)CC3)n2)cc1`, for which the IC50 in [1] and in [2] was > 64.6 µM (inactive) in each case.
`Cn1nccc1C(=O)NC1CCCc2c1cnn2-c1ccc(F)cc1F` (centres undefined): the IC50 in [3] is > 20 µM (inactive); in assay [4], 0.677 µM (active); in assay [6], 0.712 µM (active); in assay [7], > 80 µM (inactive); in assay [8], > 80 µM (inactive); in [9] it was 0.24 µM (active). Further, the AC50 in assay [5] was 1.44 µM (active). In [10], the EC50 is > 29.9 µM (inactive).
With `Cc1ccc2nc3c(c(N)c2c1)CCN3c1ccccc1`, the AC50 in [11] was 42.5 µM (active).
Take `CCc1ccc(/C=C2\SC(=S)N(CCC(=O)N3CCN(C)CC3)C2=O)cc1`: the CC50 in assay [12] was 18.6 µM (active). Further, the IC50 in assay [13] is 82.7 µM (active); in assay [14], 51.6 µM (active); in assay [15], > 100 µM (inactive).
As to `CC(C)(C)c1ccc(-c2noc(CCC(=O)NC3CC3)n2)cc1`, the IC50 in assay [16] was > 80 µM (inactive).
`O=C1CC2(CC(c3ccc(Cl)cc3)=NO2)C(=O)N1c1cccc(Cl)c1` (centres undefined): the EC50 in [17] is > 100 µM (inactive).
For `C/C(=N\NC(=O)c1cc(O)cc(O)c1)c1ccc(NC(=O)Cc2ccccc2)cc1`, the IC50 is 4.69 µM (active) in [18]; 0.74 µM (active) in [19]; 50.1 µM (inactive) in assay [20]; 12 µM (active) in [21]; 9.77 µM (active) in [22].
On to `O=C(N/N=C\c1ccc(-c2ccc([N+](=O)[O-])cc2)o1)C1COc2ccccc2O1` (centres undefined), for which the IC50 in assay [13] is 36.4 µM (active); in assay [14], 28.2 µM (active); in assay [15] it was > 100 µM (inactive). The EC50 was 0.62 µM (active) in assay [23] and > 60 µM (not active) in assay [24].

Values taken from ChEMBL document CHEMBL1201862, “PubChem BioAssay data set” (2004).
